From article PMC9241695, “Selective Metal Chelation by a Thiosemicarbazone Derivative Interferes with Mitochondrial Respiration and Ribosome Biogenesis in Candida albicans” (Microbiology Spectrum, 2022)
Converted amounts (≈) assume the structure as drawn. Where two headings read alike, the source gives them in different places. One block for each compound: values may come before it.

Tests used:
[1] = tested on: C. albicans SC5314; assay: Antifungal susceptibility testing, microbroth dilution MIC; assay type: cell-based; conditions: Candida albicans, read-out: MIC (μg/mL) against fungi SC5314
Excerpt: (§1) Compound library. The thiosemicarbazone derivatives Triapine and COTI-2 were purchased from Med Chem Express (MCE). The other 87 thiosemicarbazones used in this study were previously synthesized by our collaborators (1, 2). Their structures are shown in Table 1 and Table S1 to help the reader clearly understand the relationship between structure and activity.
(§2) Strains and culture conditions. Clinically derived C. albicans isolates, including G5, F5, and Gu5, were kindly provided by Professor Joachim Morschhäuser of the University of Würzburg. Other clinical C. albicans isolates were kindly donated by Professor Qingguo Qi of Shandong University and Qianfoshan Hospital of Shandong Province Other Candida strains were obtained from Jinan Central Hospital.
(§3) The zap1 mutant and its complemented strain were kindly provided by Professor Aaron P. Mitchell of Carnegie Mellon University (3). The C. neoformans strains used in this study was kindly donated by Professor Guojian Liao of Southwest University and A. fumigatus strain used in this study was provided by Professor Ling Lu of Nanjing Normal University. Before in vitro and in vivo experiments, all C. albicans strains were grown on YPD agar plates. After culturing at 30°C for 24 h, colonies of each strain were cultured in liquid YPD medium at 30°C with continuous shaking […]
(§4) Antifungal susceptibility testing. To determine in vitro antifungal activities, the microbroth dilution method was carried out in RPMI1640 medium according to the guidelines of the Clinical and Laboratory Standards Institute (4, 5). The initial concentration in RPMI1640 medium was 1 × 10^3 CFU/mL for the C. albicans and C. neoformans suspensions but 1 × 10^4 CFU/mL for A. fumigatus. The range of final drug concentrations was 0.0156–64 μg/mL. The plates were incubated at35°C for 24 […]
(§5) h (for C. albicans, C. krusei, C. tropicalis, C. parapsilosis) or 48 h (for C. neoformans, A. fumigatus). The MIC was determined based on visible growth inhibition compared with the control. All experiments were performed in duplicate. […]

[2] = tested on: C. neoformans H99; assay: as above; assay type: cell-based; conditions: Cryptococcus neoformans, read-out: MIC (μg/mL) against fungi H99
Excerpt: as §1, §2
(§6) The zap1 mutant and its complemented strain were kindly provided by Professor Aaron P. Mitchell of Carnegie Mellon University (3). The C. neoformans strains used in this study was kindly donated by Professor Guojian Liao of Southwest University and A. fumigatus strain used in this study was provided by Professor Ling Lu of Nanjing Normal University. […]
as §4, §5

[3] = tested on: A. fumigatus AF293; assay: as above; assay type: cell-based; conditions: Aspergillus fumigatus, read-out: MIC (μg/mL) against fungi AF293
Excerpt: as §1, §2, §6, §4, §5

[4] = tested on: C. albicans SC5314; assay: qPCR of genes associated with ribosome biogenesis; assay type: cell-based, Candida albicans; conditions: CPX 0.5 or 2 μg/mL 8 h; DFO 64 µg/mL 6 h; TPEN 0.05 or 0.2 μg/mL 6 h
Description: Determination of SOD activity. SOD activity was measured using the Superoxide Dismutase Activity Assay Kit (Njjcbio, Nanjing, China) following the manufacturer's instructions. An overnight culture of C. albicans SC5314 was adjusted to 1 × 10^7 cells/mL with RPMI1640 medium and treated with 19ak at a final concentration of 0, 0.125, 0.25, 0.5, or 1 μg/mL for 6 h. After collection by centrifugation, the cells were broken by glass beads in extraction buffer and centrifuged at 4°C. The absorbance of the supernatant of each sample was measured with a microplate reader at450 nm.
Determination of catalase (CAT) activity. CAT activity was measured by using a Catalase Assay Kit (Solarbio, Beijing, China) following the manufacturer's instructions. An overnight culture of C. albicans SC5314 was adjusted to 1 × 10^6 cells/mL with RPMI1640 medium and treated as described above for SOD activity.
The decomposition of H2O2 is directly accompanied by a decrease in absorbance at 240 nm, and the difference in absorbance per unit time (ΔA240) is a measure of […]
Quantitative real-time polymerase chain reaction (qPCR) analysis. C. albicans SC5314 cells (1 × 10^6 cells/mL) were incubated with or without 19ak (0.5,2 […]
Total RNA was extracted using the hot phenol method, and the RNA quality was analyzed using a spectrophotometer (Eppendorf, Hamburg, Germany). The RNA was converted to cDNA using a cDNA Reverse
Transcription kit (Accurate Biotechnology, Hunan, China). PCR detection based on SYBR Green was performed on an Eppendorf real-time PCR system (Eppendorf, […]
Drug resistance study. Drug resistance studies were carried out by repeatedly treating C. albicans with an antifungal agent followed by MIC determination using […]

[5] = tested on: A. fumigatus 1161; assay: Microbroth dilution MIC80; assay type: cell-based; conditions: Aspergillus fumigatus; A. fumigatus 1161; read-out: MIC80
Excerpt: as §1, §2, §3, §4, §5

[6] = AF293, standard strain of A. fumigatus, 48 h

Structure (SMILES): S=C(N/N=C(\c1ccccc1)c1ccccn1)Nc1ccccc1Br [Compound 19x]
MIC ([1]; SC5314, 24 h): 1 µg/mL (≈ 2.43 µM) | MIC ([2]; H99, 48 h): 0.5 µg/mL (≈ 1.22 µM) | MIC ([3]; AF293, 48 h): 16 µg/mL (≈ 38.9 µM)

Structure (SMILES): CC(=O)N(O)CCCCCNC(=O)CCC(=O)N(O)CCCCCNC(=O)CCC(=O)N(O)CCCCCN [DFO, deferoxamine]
Expression of genes associated with ribosome biogenesis (qPCR) [4]: minor effects

MIC ([1]; SC5314, C. albicans wild-type strain, RPMI1640, 35°C, 24 h): 32 µg/mL (≈ 164 µM) | MIC ([2]; H99, C. neoformans wild-type strain, 48 h): 4 µg/mL (≈ 20.5 µM) | MIC [3, 6]: 32 µg/mL (≈ 164 µM)
Structure (SMILES): NC(=S)NN=Cc1ncccc1N [Triapine, 3-aminopyridine-2-carboxaldehyde thiosemicarbazone, reference compound]

Structure (SMILES): C[C@@H](c1ncncc1F)[C@](O)(Cn1cncn1)c1ccc(F)cc1F [VOR, voriconazole, reference compound]
MIC80 [5]: 0.25 µg/mL (≈ 0.716 µM) | MIC [3, 6]: 0.25 µg/mL (≈ 0.716 µM)
